For 14 compounds, pest or weed control results are on record in patent publication US20220125051A1, “PRE-HARVEST DESICCATION METHOD” (SYNGENTA CROP PROTECTION AG, priority 2019, published 2022).

Holding throughout (experiment): Post-emergence efficacy, Method A
Type in all cases: in vivo

For test [1], the system named is Amaranthus palmeri (AMAPA). The note with it: Amaranthus palmeri, post-emergence, 312 h; Application rate 500 g/Ha; evaluated after 13 days; 100=total damage to plant, 0=no damage to plant; read-out: Control of weed species after post-emergence application, AMAPA. The gist of the method: (§1)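 Sow in standard soil; grow 14 d under glasshouse control (24/16 °C, 14 h light, 65% humidity). Spray post-emergence with compound formulated in acetone/IF50, diluted in Empicol ESC70 (0.25% or 1%) + 1% ammonium sulphate. Return to glasshouse, water twice daily, score at 13 d on a 0–100 damage scale.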

The subject of test [2] is Chenopodium album (CHEAL). As to conditions: Chenopodium album, post-emergence, 312 h; Application rate 500 g/Ha; evaluated after 13 days; 100=total damage to plant, 0=no damage to plant; read-out: Control of weed species after post-emergence application, CHEAL. In a few lines:
as §1

The subject of test [3] is Ipomoea hederacea (IPOHE). As to conditions: Ipomoea hederacea, post-emergence, 312 h, Application rate 500 g/Ha; evaluated after 13 days; 100=total damage to plant, 0=no damage to plant; read-out: Control of weed species after post-emergence application, IPOHE. The gist of the method: as §1
The next test relates to Eleusine indica (ELEIN). As to conditions: Eleusine indica, post-emergence, 312 h; Application rate 500 g/Ha; evaluated after 13 days; 100=total damage to plant, 0=no damage to plant; read-out: Control of weed species after post-emergence application, ELEIN. The gist of the method: as §1
Test [4] concerns Euphorbia heterophylla (EPHHL). As to conditions: Euphorbia heterophylla, post-emergence, 312 h; Application rate 500 g/Ha; evaluated after 13 days; 100=total damage to plant, 0=no damage to plant; read-out: Control of weed species after post-emergence application, EPHHL. In a few lines:
as §1

In test [5] the test system is Digitaria sanguinalis (DIGSA). The note with it: Digitaria sanguinalis, post-emergence, 312 h; Application rate 500 g/Ha; evaluated after 13 days; 100=total damage to plant, 0=no damage to plant; read-out: Control of weed species after post-emergence application, DIGSA. In a few lines: as §1
Test [6] deals with Echinochloa crus-galli (ECHCG). The note with it: Echinochloa crus-galli, post-emergence, 312 h; Application rate 500 g/Ha; evaluated after 13 days; 100=total damage to plant, 0=no damage to plant; read-out: Control of weed species after post-emergence application, ECHCG. The gist of the method: as §1
The next test has as its system Lolium perenne (LOLPE). As to conditions: Lolium perenne, post-emergence, 312 h, Application rate 500 g/Ha; evaluated after 13 days; 100=total damage to plant, 0=no damage to plant; read-out: Control of weed species after post-emergence application, LOLPE. In a few lines: as §1
The next test deals with Setaria faberi (SETFA). As to conditions: Setaria faberi, post-emergence, 312 h; Application rate 500 g/Ha; evaluated after 13 days; 100=total damage to plant, 0=no damage to plant; read-out: Control of weed species after post-emergence application, SETFA. The gist of the method: as §1

Consider `Cc1cc(Cl)cnc1-c1cc[n+](CCCS(=O)(=O)[O-])nc1` [Compound A102], for which the pest or weed control at 500 g/ha turned out to be 20% in test [1]; 50% in test [2]; 0% in test [3]; 10% with Eleusine indica (ELEIN); 20% in test [4]; 10% in test [5]. Moreover, the pest or weed control at 500 g/ha (in test [6]; in the test with Lolium perenne (LOLPE); with Setaria faberi (SETFA)) was 10% throughout.

For `Cc1cc(Cl)cnc1-c1cc[n+](CCS(=O)(=O)[O-])nc1` [Compound A103], the pest or weed control at 500 g/ha was 0% in test [1]; 50% in [2]; 30% in test [3]; 30% in the test on Eleusine indica (ELEIN); 50% in [4]; 20% in test [5]. Besides, the results for the pest or weed control at 500 g/ha (in test [6]; with Lolium perenne (LOLPE); in the test on Setaria faberi (SETFA)) were 30%, 10% and 10%, respectively.

In the case of `Cc1cc(F)cnc1-c1cc[n+](CCS(=O)(=O)[O-])nc1` [Compound A104], the pest or weed control at 500 g/ha in test [1] was 10%; in test [2] it was 0%; in test [3] it was 30%; in the test on Eleusine indica (ELEIN), 50%; in test [4], 20%; in [5] it was 30%. In addition, the pest or weed control at 500 g/ha stood at 30% in test [6], 10% in the test with Lolium perenne (LOLPE) and 30% in the test with Setaria faberi (SETFA).

Consider `COc1cc(C)nc(-c2cc[n+](CCC(=O)[O-])nc2)n1` [Compound A105], for which the pest or weed control at 500 g/ha stood at 90% in test [1]; 20% in test [2]; 0% in test [3]; 20% in the test with Eleusine indica (ELEIN); 50% in test [4]; 60% in test [5]. Further, the pest or weed control at 500 g/ha in test [6] is 40%; in the test with Lolium perenne (LOLPE), 50%; in the test with Setaria faberi (SETFA) it was 90%.

For the compound `COc1nc(-c2cc[n+](CCC(=O)[O-])nc2)ncc1C` [Compound A106], the pest or weed control at 500 g/ha in test [1] turned out to be 80%; in [2] it was 20%; in test [3], 10%; with Eleusine indica (ELEIN) it was 80%; in test [4], 20%; in test [5], 60%. Besides, the pest or weed control at 500 g/ha in test [6] came to 50%; in the test with Lolium perenne (LOLPE), 60%; in the test on Setaria faberi (SETFA), 60%.

With `O=S(=O)([O-])CC[n+]1ccc(-c2ccnc(C(F)(F)F)n2)cn1` [Compound A108], the pest or weed control at 500 g/ha was 40% in test [1]; 80% in [2]; 70% in test [3]; 60% in the test on Eleusine indica (ELEIN); 80% in [4]; 50% in test [5]. The values for the pest or weed control at 500 g/ha (in test [6]; in the test on Lolium perenne (LOLPE); in the test with Setaria faberi (SETFA)) were 40%, 40% and 60%, respectively.

Consider `O=S(=O)([O-])CC[n+]1ccc(-c2cc(C(F)(F)F)ncn2)cn1` [Compound A109], for which the pest or weed control at 500 g/ha in test [1] came to 60%; in test [2] it was 60%; in test [3] it was 50%; in the test on Eleusine indica (ELEIN), 50%; in test [4], 60%; in test [5] it was 50%. Further, the pest or weed control at 500 g/ha amounted to 40% in [6], 30% with Lolium perenne (LOLPE) and 30% with Setaria faberi (SETFA).

Regarding `O=S(=O)([O-])CC[n+]1ccc(-c2cncc(C(F)(F)F)n2)cn1` [Compound A110], the pest or weed control at 500 g/ha in test [1] worked out at 100%; in test [2], 100%; in test [3], 80%; in the test on Eleusine indica (ELEIN) it was 90%; in [4] it was 80%; in [5], 40%. In addition, the pest or weed control at 500 g/ha (in test [6]; with Lolium perenne (LOLPE); in the test on Setaria faberi (SETFA)) was 50% throughout.

Consider `O=S(=O)([O-])CC[n+]1ccc(-c2cnc(C(F)(F)F)cn2)cn1` [Compound A112], for which the pest or weed control at 500 g/ha in test [1] turned out to be 100%; in [2], 100%; in test [3], 40%; with Eleusine indica (ELEIN) it was 50%; in test [4], 80%; in test [5], 40%. For the same compound, the pest or weed control at 500 g/ha stood at 40% in test [6], 40% in the test on Lolium perenne (LOLPE) and 70% in the test on Setaria faberi (SETFA).

As to `CCOP(=O)(O)CC[n+]1ccc(-c2ncccn2)cn1` [Compound A113, ethoxy-[2-(4-pyrimidin-2-ylpyridazin-1-ium-1-yl)ethyl]phosphinate], the pest or weed control at 500 g/ha in test [1] came to 40%; in test [2], 90%; in [3] it was 60%; with Eleusine indica (ELEIN), 40%; in test [4] it was 100%; in test [5] it was 60%. In addition, the values for the pest or weed control at 500 g/ha (in [6]; with Lolium perenne (LOLPE); with Setaria faberi (SETFA)) were 60%, 10% and 50%, respectively.

Take `CC(C)(C[n+]1ccc(-c2ncccn2)cn1)S(=O)(=O)[O-]` [Compound A114, 2-methyl-1-(4-pyrimidin-2-ylpyridazin-1-ium-1-yl)propane-2-sulfonate]: the pest or weed control at 500 g/ha was determined as 100% in [1]; 60% in test [2]; 60% in [3]; 90% in the test with Eleusine indica (ELEIN); 80% in test [4]; 80% in [5]. Further, the pest or weed control at 500 g/ha in test [6] is 60%; with Lolium perenne (LOLPE), 70%; in the test with Setaria faberi (SETFA), 40%.

As for `COc1ccc(-c2cc[n+](CCCS(=O)(=O)[O-])nc2)nn1` [Compound A115], the pest or weed control at 500 g/ha in test [1] amounted to 100%; in test [2], 100%; in test [3], 40%; in the test on Eleusine indica (ELEIN) it was 30%; in test [4], 30%; in test [5] it was 30%. For the same compound, the pest or weed control at 500 g/ha in [6] is 50%; in the test with Lolium perenne (LOLPE) it was 30%; with Setaria faberi (SETFA), 60%.

For the compound `O=c1cc(-c2cc[n+](CCCS(=O)(=O)[O-])nc2)nc[nH]1` [Compound A116], the pest or weed control at 500 g/ha in [1] stood at 100%; in test [2], 80%; in test [3], 10%; in the test with Eleusine indica (ELEIN), 20%; in test [4], 50%; in [5], 30%. The values for the pest or weed control at 500 g/ha (in test [6]; in the test on Lolium perenne (LOLPE); with Setaria faberi (SETFA)) were 20%, 10% and 30%, respectively.

For `Cc1cc(-c2cc[n+](CCS(=O)(=O)[O-])nc2)ncn1` [Compound A117], the pest or weed control at 500 g/ha in test [1] came out at 90%; in [2], 90%; in test [3] it was 80%; in the test on Eleusine indica (ELEIN), 90%; in [4], 100%; in test [5], 70%. Also, the pest or weed control at 500 g/ha in [6] is 90%; with Lolium perenne (LOLPE), 50%; in the test with Setaria faberi (SETFA) it was 100%.
